Values quoted from earlier work, collected in patent US20010039262A1, “Methods and compositions for the treatment of cardiac indications” (priority 2000, published 2001).

Experiments:
patients with severe HF = conditions: spironolactone administered along with captopril and furosemide
[1] = test system: patients with stable Congestive Heart Failure (NYHA class II-IV)
[2] = heart failure patients treated with spironolactone

CC(=O)S[C@@H]1CC2=CC(=O)CC[C@]2(C)[C@H]2CC[C@@]3(C)[C@@H](CC[C@@]34CCC(=O)O4)[C@H]12 [spironolactone]
reduction of morbidity and mortality (patients with severe HF): 27% | morbidity ([1]; 31 patients with stable CHF (NYHA class II-IV), spironolactone vs placebo in addition to diuretics and ACE inhibitor): lowered | early morning rise in heart rate [1, 2]: reduced | heart rate variability [1, 2]: improved | vascular collagen turnover [1, 2]: reduced | reduction in myocardial fibrosis activity ([1]; spironolactone 50-100 mg/day in addition to diuretics and ACE inhibitor, 8 weeks of active therapy): approximately 20%
